According to patent publication US20130005678A1, “Methods and Compositions for Treating or Ameliorating Cancer Using Gemcitabine-5'-Elaidate” (CLAVIS PHARMA ASA, priority 2010, published 2013):

Key:
WiDr cell line = assay: Platinum accumulation in DNA (WiDr); assay type: cell-based, human; details: oxaliplatin 200 μM combined with Gemcitabine-5′-elaidate 0.004 μM
Method: The effect on DNA platinum accumulation in DNA after exposure to oxaliplatin and oxaliplatin combined with Gemcitabine-5′-elaidate (oxaliplatin [200 μM] combined with Gemcitabine-5′-elaidate [0.004 μM]) is also determined.

[1] = system: CCRF-CEM human leukemia cell line; assay: Triphosphate accumulation and retention in CCRF-CEM cells; assay type: cell-based
Excerpt: Drugs: Gemcitabine-5′-elaidate was provided by Clavis Pharma (Oslo, Norway), tetra hydro uridine (THU) was from Calbiochem (Merck, Darmstadt, Germany), dipyridamole and ara-C were from Sigma-Aldrich (St. Louis, Mo., USA) and dFdC was from Eli-Lilly (Indianapolis, Ind., USA). The radioactively labeled drugs were obtained from Moravek (Brea, Calif., USA); the drugs were labeled with tritium on the 5-C site of the base. A mix of radioactive and non-radioactive compounds was made for exposure of cells; dFdC and CP-4126 were used at a final concentration of 8.9 μM and a specific activity of 586 and 391 mCi/mmol, respectively.
Cell lines: For the experiments the CCRF-CEM human leukemia cell line and its dCK negative variant (CEM/dCK−) were used. The cell lines were cultured in RPMI medium (BioWhittaker, Verviers, Belgium) supplemented with 10% fetal calf serum (PAA laboratories, Pasching, Austria) and HEPES buffer (BioWhittaker). Of the nucleoside influx transporters, the CEM cell line only expresses the equilibrative nucleoside transporter (hENT) and not the concentrative nucleoside transporter (hCNT). Belt et al. Adv. Enzyme Regul., 1993, 33, 235-52. Dipyridamole (DP) was used to inhibit the influx of the drugs by hENT. In order to get a clean picture, THU was also added to inhibit deamination of ara-C and dFdC.
Triphosphate accumulation: Cells were treated with 1 and 10 μM of dFdC, while for the lipophilic analogs 10 and 100 μM was used. The cells were incubated for 60 minutes and retention of the triphosphates was investigated after 60 and 120 minutes incubation in drug-free medium. Dipyridamole was added to inhibit drug influx by the hENT transporter. After incubation the cell pellet was resuspended in ice-cold PBS and incubated for 20 minutes at 4° C. with 40% trichloroacetic acid. After centrifugation (10,000 g, 10 min, 4° C.) the supernatant was treated with a 2-fold excess of trioctylamine/1,1,2-trichlorotrifluorethane (1:4) and spun down (10,000 g, 1 min) and the aqueous phase was stored at −20° C. until analysis by HPLC on a Whatman Partisphere SAX column (GE healthcare, Chalfont St. Giles, UK) using gradient (dFdC-TP) elution as described earlier. Noordhuis et al., Leuk. Res., 1996, 20, 127-34; Ruiz van Haperen, et al., Biochem. Pharmacol., 1994, 48, 1327-39.

Co6044 = assay: Oral activity and schedule dependency in mice with Co6044; assay type: in vivo, human
Method: Oral administration of Gemcitabine-5′-elaidic acid ester and gemcitabine is tested in NCr:nu/nu mice for potential antitumor activity. Treatment is every third day repeated five times. In a follow-up experiment, the antitumor activity of oral and intraperitoneal treatment is compared in this colon cancer model (Co6044). The doses for oral treatment with Gemcitabine-5′-elaidic acid ester and gemcitabine are lower (20, 30, or 40 mg/kg) than in the previous experiment.
In this experiment, the antitumor activity of oral Gemcitabine-5′-elaidic acid ester in three different administration schedules is compared: every 3 days times 5, daily times 5, and once weekly times 2. Three doses are tested per schedule.

[2] = system: THX, Lox, MOLT4, and MOLT4/C; assay: Protection by dipyridamole from cell killing in vitro (FIG. 4); assay type: cell-based; details: four cell lines
Excerpt: The number on the Y axis is the fold protection by dipyridamole from administration of gemcitabine and gemcitabine-5′-elaidate.

[3] = system: human colon cancer Co5776; assay: Antitumor activity in human colon xenograft Co5776; assay type: in vivo
Method: (§1) Fragments of human colon cancers Co5776 and Co6044 are implanted subcutaneously in NCR female mice (7-8 mice/group). Gemcitabine (120 mg/kg) and gemcitabine-5′-elaidic acid ester (40 mg/kg) are administered intraperitoneally, every third day for five times.
NCr female mice implanted subcutaneously with human colon carcinoma fragments, Co5776, are treated intraperitoneally. Two different schedules of gemcitabine-5′-elaidic acid ester are administered, once weekly times 2 (Days 11 and 18), and every third day times 5 (Days 11, 14, 17, 20, and 23). Antitumor activity of gemcitabine-5′-elaidic acid ester is similar for 150 mg/kg once weekly, administered twice or 40 mg/kg every third day administered five times.

[4] = system: Co-26 murine colon cancer cells; assay: Antitumor effect in Co-26 liver metastasis model; assay type: in vivo; details: single dose 75 mg/kg
Method: Antitumor effect of single dose of gemcitabine-5′-elaidic acid ester or gemcitabine is tested in Balb/C female mice injected with Co-26 murine colon cancer cells in the spleen (a liver metastasis model). […] The activity of gemcitabine is similar.

WiDr-LF cell line = assay: Combination with pemetrexed under low folate conditions (WiDr-LF); assay type: cell-based, human; details: MTT assay
Method: The cell lines A549 human NSCLC and WiDr human colon carcinoma are used to determine the combination index and also the effect of Gemcitabine-5′-elaidate on the cell cycle. A sulforhodamine B colorimetric assay is used to determine growth inhibition after 72 hours. Pemetrexed combinations are tested using the MTT assay. Combinations with pemetrexed are also tested in the WiDr-LF cell line, which are WiDr cells cultured under low folate conditions. The IC25 and IC50 values (inhibitory concentrations at 25% or 50%, respectively) are calculated. The IC25 value is used for combinations with serial dilutions of oxaliplatin or docetaxel, and the IC50 value is used for pemetrexed combinations. Median effect analysis is performed.

CEM cells = assay: Intracellular dFdCTP level in CEM cells with or without dipyridamole (HPLC); assay type: cell-based, human
Method: hENT1 can inhibited in vitro by various agents including dipyridamole, NBMPR, and NBI. In order to test whether gemcitabine-5′-elaidate entry into the cells is independent of a nucleoside transporter such as hENT1, dipyridamole is used to block hENT1. The intracellular level of dFdCTP is determined in CEM cells after 60 minutes exposure to either dFdC or gemcitabine-5′-elaidate, with or without the addition of dipyridamole (DP). The compounds are administered at 10 μM, and the triphosphates are determined using HPLC. Deamination is blocked using tetrahydrouridine.

[5] = system: human colon cancer Co6044; assay: Antitumor activity in human colon xenograft Co6044 (intraperitoneal); assay type: in vivo; details: intraperitoneally every third day five times
Method: as §1

CCCCCCCC/C=C/CCCCCCCC(=O)OC[C@H]1O[C@@H](n2ccc(N)nc2=O)C(F)(F)[C@@H]1O [gemcitabine-5′-elaidic acid ester]
platinum adducts in DNA, oxaliplatin combined vs oxaliplatin alone (WiDr cell line): increase of platinum adducts
retention of dFdC-TP concentration after washing away the drugs ([1]; 60 and 120 minutes in drug-free medium): retained at a similar level
effect of dipyridamole on dFdC-TP accumulation ([1]; hENT inhibited by dipyridamole): even increased the concentration of triphosphates
antitumor activity (Co6044; every 3 days times 5, daily times 5, once weekly times 2, all tested schedules): High antitumor activity
dose dependence of activity (Co6044; three doses per schedule): dose dependent
protection by dipyridamole (blocking transporters) against cell killing [2]: does not protect
activity compared with gemcitabine ([3]; 40 mg/kg vs gemcitabine 120 mg/kg, intraperitoneally every third day five times): similar
antitumor effect ([3]; NCR female mice, intraperitoneally every third day five times, gemcitabine 120 mg/kg, gemcitabine-5′-elaidic acid ester 40 mg/kg): Significant antitumor effect
antitumor activity, comparison of schedules ([3]; NCr female mice, intraperitoneal, 150 mg/kg once weekly times 2 vs 40 mg/kg every third day times 5): similar
antitumor activity ([4]; Balb/C female mice, Co-26 cells in the spleen): significant antitumor activity
hematological parameters [4]: moderate reduction
mean survival in days and Treated/Control (T/C, %) over saline control [4]: significant increase
antagonistic activity of combination with pemetrexed under low folate conditions (WiDr-LF cell line): slightly reduced
dFdCTP levels with inhibitor (DP) compared to without inhibitor (CEM cells; 10 μM): even increased
time of maximum dFdCTP concentration (CEM cells; 10 μM, after exposure): reached at the last time point measured
dFdCTP accumulation with blocked nucleoside transporters (FIG. 3) (CEM cells; transporters blocked): accumulates in cells despite blocking transporters
activity compared with gemcitabine ([5]; 40 mg/kg vs gemcitabine 120 mg/kg): similar
antitumor effect ([5]; NCR female mice, gemcitabine 120 mg/kg, gemcitabine-5′-elaidic acid ester 40 mg/kg): Significant antitumor effect
